Data taken from PMC7503370, “Cellular Signaling and Anti-Apoptotic Effects of Prolactin-Releasing Peptide and Its Analog on SH-SY5Y Cells” (International Journal of Molecular Sciences, 2020).
Numbered stars: 1 amine (or outer) side, 2 acyl side, 3 side chain; on linkers, the order of the positions; unused ones are H or OH. Side chains are listed from the residue outwards. Peptide text beside a SMILES is read from it. * marks the point of attachment. γGlu = O=C(O)[C@H](CCC(=O)[*:2])N[*:1]; Palmitoyl = CCCCCCCCCCCCCCCC(=O)*

Assays:
Assay type in all cases: cell-based, human
[1] = test system: Tau protein phosphorylation in SH-SY5Y cells; experiment: Western blotting of Tau phosphorylation in MG-stressed cells; conditions: 4 h pretreatment 1 × 10^−5 M, then 0.6 mM MG 16 h, vs MG; for attenuation of MG-increased Tau phosphorylation at Ser396: normalized to GAPDH
Experimental: Figure 8 PrRP31 and palm^11-PrRP31 attenuate Tau hyperphosphorylation at the epitope Ser396 in SH-SY5Y. Immunoblots with: (a) and their quantifications: (b). SH-SY5Y cells were pretreated with PrRP31 and palm^11-PrRP31 at a concentration of 1 × 10^−5 M for 4 h and then stressed with 0.6 mM MG for 16 h. Activation was expressed as the ratio of the activated protein to the total amount of the protein, both normalized to loading control, GAPDH. Data are presented as the means ± SEM as a percentage of control cells treated with medium alone. Analysis is made vs. MG by a Student’s t-test, * p < 0.5, ** p < 0.01 (each sample replicate in triplicate).
(§1) For the investigation of the molecular mechanism of PrRP31 and its analog in the cells, signaling pathways were studied by Western blotting (WB). The cells were cultured in 6-well plates at a density of 800,000 cells per well. Growth medium was exchanged for serum-free DMEM 16 h before an experiment, and then, the cells were incubated with PrRP31, palm^11-PrRP31, or scrambled peptide at a final concentration of 1 × 10^−5 M or insulin at a concentration of 1 × 10^−7 M at 37 °C for 8 min. The cells were rapidly cooled on ice and lysed in 400 µl of Laemmli sample buffer (62.5 mM Tris-HCl with pH 6.8, 2% SDS, 10% glycerol, 0.01% bromophenol blue, 5% mercaptoethanol, 50 mM NaF, and 1 mM Na3VO4) and stored at −20 °C. Afterward, the cell lysates were analyzed by WB. SDS-electrophoresis and WB were carried out using a Criterion system with a 26-well 4−15% Criterion^TM TGX^TM Precast Midi Protein Gel (Bio-Rad, Hercules, CA, USA) at a constant voltage of 200 V or 100 V, respectively.
(§2) Subsequently, the membranes were incubated overnight with primary antibody (Ab) at 4 °C, according to the manufacturer´s instructions (Table 2). The next day, the membranes were incubated with an HRP-linked secondary antibody for 1 h at room temperature. Chemiluminescence was visualized with a ChemiDoc^TM System (Bio-Rad). Band intensities were normalized using glyceraldehyde 3-phosphate dehydrogenase (GAPDH) as an internal loading control.
For analysis of the molecular mechanism during MG stress, the growth medium was exchanged for serum-free DMEM 16 h before the experiment. The cells were pretreated with 1 × 10^−5 M PrRP31 or palm^11-PrRP31 for 4 h; then, MG was added to a final concentration of 0.6 mM, and the cells were incubated at 37 °C for 16 h. The controls and compounds were tested in triplicate.

SH-SY5Y cells = experiment: Treatment with peptides after 16 h exposure to MG, MTT cell viability; conditions: 1.2 mM MG 16 h, then 4 h treatment 1 × 10^−5 M, n = 3, octuplicates
Experimental: Treatment for 4 h with PrRP31 and palm^11-PrRP31 at a concentration of: (a) 1 × 10^−5 M; after exposure to 1.2 mM MG for 16 h in SH-SY5Y cells. Treatment for 4 h with PrRP31 and palm^11-PrRP31 at a concentration of: (b) 1 × 10^−5 M; (c) 1 × 10^−7 M, after exposure to 0.6 mM MG for 16 h in SH-SY5Y cells. MG toxicity measured with MTT assay. Data are presented as the means ± SEM as a percentage of control cells treated with vehicle analyzed by a Student´s t-test vs. 0.6 mM MG ## p < 0.01, ### p < 0.001, #### p < 0.0001 (n = 3, each sample in octuplicates). Control vs. 0.6 mM MG analyzed by a Student´s t-test, * p < 0.5, ** p < 0.01.
The MTT test was used to measure cell viability. The MTT reagent was dissolved in RPMI-1640 without phenol red. Cells were incubated for 2 h with a 10% solution of MTT at 37 °C. Living cells converted soluble MTT to insoluble formazan, which was subsequently dissolved in DMSO. The absorbance was measured at a wavelength of 560 nm.
For this assay, cells were cultured in 96-well plates at a density of 40,000 cells per well. The growth medium was exchanged for serum-free DMEM 16 h before the experiment. First, the cells were pretreated with 1 × 10^−5 M or 1 × 10^−7 M PrRP31 or palm^11-PrRP31 (in octuplicates) for 4 h to prevent MG cytotoxic effects; then, MG was added to a final concentration of 0.6 mM or 1.2 mM. The cells were incubated at 37 °C for 16 h. […]

[2] = test system: ERK-CREB signaling pathway in SH-SY5Y cells; experiment: Western blotting of ERK-CREB signaling pathway after 8 min incubation; conditions: 1 × 10^−5 M, 37 °C, vs control cells (medium alone), normalized to GAPDH, n = 3, triplicates
Experimental: Figure 2 PrRP31 and palm^11-PrRP31 increased phosphorylation of extracellular signal-regulated kinase/cAMP response element-binding protein (ERK-CREB) signaling pathway in SH-SY5Y cells. Immunoblots: (a) and their quantifications: (b). SH-SY5Y cells were incubated either with PrRP31 and its palmitoylated analog and scrambled at a final concentration 1 × 10^−5 M, or with insulin at the final concentration 1 × 10^−7 M at 37 °C for 8 min, or medium alone. Activation was expressed as the ratio of the activated protein to the total amount of the protein, both normalized to loading control, GAPDH. Data are presented as the means ± SEM as a percentage of control cells treated with medium alone analyzed by one-way ANOVA followed by the Dunnett post hoc test, * p < 0.5, ** p < 0.01, **** p < 0.0001 (n = 3, each sample in triplicates).
as §1, §2
Eight minutes of incubation was performed in a series of experiments with different exposure times (5, 10, 15, 30, and 60 min) to PrRP31 and its palmitoylated analog. Activation of analogs was strongest after 10 min. Then, the cells were treated with inhibitors of signaling pathways for 2 min, and analogs were added for 8 min. […] Activation is expressed as the ratio of the activated protein to the total amount of the protein. […]

Row | SMILES | attenuation of MG-increased Tau phosphorylation at Ser396 ([1]; triplicates) [%] | increase in unphosphorylated Tau (Tau 1 antibody, Ser198/199/202)/Tau 5 ([1]; triplicates) [%] | change of cell viability compared to cells administered with 1.2 mM MG (SH-SY5Y cells) | increase of p-CREB (Ser133)/CREB [2] [%] | increase of p-ERK (Thr 202/Tyr204)/ERK [2] [%] | Tau phosphorylation at Ser198/199/202 (Tau 1)/Tau 5 induced by MG, effect of pretreatment [1]
1 | CCCCCCCCCCCCCCCC(=O)N[C@@H](CCC(=O)NCCCC[C@H](NC(=O)[C@@H](NC(=O)[C@H](CCC(=O)O)NC(=O)[C@H](CCSC)NC(=O)[C@H](CO)NC(=O)[C@H](Cc1c[nH]cn1)NC(=O)[C@H](CCCNC(=N)N)NC(=O)[C@H](Cc1c[nH]cn1)NC(=O)[C@@H](NC(=O)[C@H](CCCNC(=N)N)NC(=O)[C@@H](N)CO)[C@@H](C)O)[C@@H](C)CC)C(=O)N[C@H](C(=O)N1CCC[C@H]1C(=O)N[C@@H](CC(=O)O)C(=O)N[C@H](C(=O)N[C@@H](CC(N)=O)C(=O)N1CCC[C@H]1C(=O)N[C@@H](C)C(=O)N[C@@H](Cc1c[nH]c2ccccc12)C(=O)N[C@@H](Cc1ccc(O)cc1)C(=O)N[C@@H](C)C(=O)N[C@@H](CO)C(=O)N[C@@H](CCCNC(=N)N)C(=O)NCC(=O)N[C@H](C(=O)N[C@@H](CCCNC(=N)N)C(=O)N1CCC[C@H]1C(=O)N[C@H](C(=O)NCC(=O)N[C@@H](CCCNC(=N)N)C(=O)N[C@@H](Cc1ccccc1)C(N)=O)C(C)C)[C@@H](C)CC)[C@@H](C)CC)[C@@H](C)O)C(=O)O [palm^11-PrRP31] (H-SRTHRHSMEIK([γGlu-Palmitoyl])TPDINPAWYASRGIRPVGRF-NH2; N-terminus assumed) | 32 | 32 | nonsignificant increase | 238 | 74 | 
2 | CC[C@H](C)[C@H](NC(=O)CNC(=O)[C@H](CCCNC(=N)N)NC(=O)[C@H](CO)NC(=O)[C@H](C)NC(=O)[C@H](Cc1ccc(O)cc1)NC(=O)[C@H](Cc1c[nH]c2ccccc12)NC(=O)[C@H](C)NC(=O)[C@@H]1CCCN1C(=O)[C@H](CC(N)=O)NC(=O)[C@@H](NC(=O)[C@H](CC(=O)O)NC(=O)[C@@H]1CCCN1C(=O)[C@@H](NC(=O)[C@H](CCCNC(=N)N)NC(=O)[C@@H](NC(=O)[C@H](CCC(=O)O)NC(=O)[C@H](CCSC)NC(=O)[C@H](CO)NC(=O)[C@H](Cc1c[nH]cn1)NC(=O)[C@H](CCCNC(=N)N)NC(=O)[C@H](Cc1c[nH]cn1)NC(=O)[C@@H](NC(=O)[C@H](CCCNC(=N)N)NC(=O)[C@@H](N)CO)[C@@H](C)O)[C@@H](C)CC)[C@@H](C)O)[C@@H](C)CC)C(=O)N[C@@H](CCCNC(=N)N)C(=O)N1CCC[C@H]1C(=O)N[C@H](C(=O)NCC(=O)N[C@@H](CCCNC(=N)N)C(=O)N[C@@H](Cc1ccccc1)C(N)=O)C(C)C [PrRP31] | 46 |  | nonsignificant increase | 68 | 36 | tended to decrease
